Measured values published in patent US20220049219A1, “AUTOMATED GENERATION AND ANALYSIS OF ORGANOIDS” (Max-Planck-Gesellschaft zur Förderung der Wissenschaften …, priority 2018, published 2022).

Tested on: automated midbrain organoids (AMOs)
Experiment: 3D toxicology assay: cCasp3/Sox2 whole mount immunostaining and high content imaging of G418-treated organoids
Type: cell-based, human
Conditions: AMOs treated for 4 days starting at day 50 of culture; 0-1000 μg/mL; cCasp3+ cells normalized by aggregate area
Description: In order to analyze protein expression in 3D in a HTS-compatible manner, we adapted a whole mount staining protocol based on Lee et al. ACT-PRESTO: Rapid and consistent tissue 579 clearing and labeling method for 3-dimensional (3D) imaging. Sci Rep 6, 18631 (2016) for organoids and optimized it for use in an automated liquid handling system. After fixation with 4% PFA (VWR) for 10-15 minutes, we stained the organoids with primary and secondary antibodies (Alexa Fluor secondary antibodies, Thermo Fisher) for 6 days each. We diluted the antibodies in a blocking and permeabilization solution (6% BSA, 0.5% Triton-X 100 (Roth), 0.1% (w/v) sodium azide (Sigma-Aldrich) in PBS (Sigma-Aldrich)) and renewed it every 2 days. Between primary and secondary antibody incubation as well as after the staining procedure we washed the organoids 5 times for 1 h with 0.1% Triton X-100 in PBS. […]
After staining and clearing, we achieved uniform aggregate positioning within the wells by tilting the plates off the horizontal plane at 60 degrees for 1 minute. Image acquisition was carried out in an Operetta high content imager (Perkin Elmer) and images were analyzed in Harmony 4.1 software. […] We excluded image artifacts, small dust particles, and overlapping nuclei by omitting nuclei brighter than 6000 abu and larger than 70 μm2 from further quantification. […]

SMILES: CN[C@@H]1[C@@H](O)[C@@H](O[C@@H]2[C@@H](O)[C@H](O[C@H]3O[C@H]([C@@H](C)O)[C@@H](O)[C@H](O)[C@H]3N)[C@@H](N)C[C@H]2N)OC[C@]1(C)O [G418]
- IC50 from dose-response curve of number of apoptotic cCasp3+ cells against logarithmic drug concentration: 339 μg/mL
